Measurements reported in patent US6365414B1, “Vitro system for determining formation of Aβ amyloid” (The General Hospital Corporation, priority 1994, dated 2002).
Read-outs that look alike come from different tables or passages of the source.

Key:
Aβ [1] = target: T1, Aβ (Homo sapiens, UniProt P05067); test: G50 gel filtration chromatography of Aβ with metal ions or EDTA; details: for less total peptide eluted compared with EDTA profile / effect on Aβ recoverable by chromatography (in words): metal 25 μM
T1 construct: purchased Bachem; Sigma (also synthesized by the W. M. Keck Foundation laboratory, Yale); host or cells: chemical synthesis
Experimental: Aβ was stored in aliquots of 0.52 mg/ml in water at −20° C., then kept at 4° C. when thawed. Reagents were mixed without vortex mixing. The incubated Aβ was directly applied to a G50 SF (Pharmacia, Uppsala, Sweden) column (Bio-Rad Econo-Column, 30×0.7 cm) pre-equilibrated with metal salt solution or EDTA (50 μM) in TBS at 20° C. and eluted at 8 ml/h (Wiz peristaltic pump, Isco, Lincoln, Nebr.). Absorbance was measured at 254 and 214 nm (Type 6 optical unit, Isco). The amount of Aβ eluting at various peaks was estimated from the area under the curve. […] Because the sample eluted in a volume of approximately 15 ml, the average concentration of the peptide on the column was 0.8 μM.
To study the effects of protein blocking upon adsorption of Aβ to the chromatography column, a Sephadex G50 SF column which had been characterized previously for Aβ behavior was eluted with 3% bovine serum albumin (BSA) in TBS (50 ml) and equilibrated with non-BSA-containing buffer, subsequent to repeating the Aβ experiments.
The elution points of molecular mass standards and relative assignments of Aβ peak elutions are indicated. Mass standards were blue dextran (2×10^6 kDa, V0=void volume), BSA (66 kDa), carbonic anhydrase (29 kDa), cytochrome c (12.4 kDa), and aprotinin (6.5 kDa). The mass of Aβ is 4.3 kDa. […] Data for experiments performed in the presence of copper were taken from 214 nm readings and corrected for comparison.

[2] = Size estimation of Aβ aggregates with filters of various pore sizes, ^65Zn tracer, EDTA wash; type: physicochemical
Experimental: FIGS. 7a, 7b, 7c and 7d. Size estimation of zinc-induced Aβ aggregates. […] By determining the amounts of Aβ1-40 and ^65Zn in the filtrate, the quantities retarded by the filters could be determined, and the stoichiometry of the zinc: Aβ assemblies estimated. (7d) Bar graph. […] The amounts of zinc-precipitated Aβ1-40 resolubilized in the filtrate fraction were determined by OD214, and expressed as a percentage of the amount originally retained by the respective filters. ^65Zn released into the filtrate was measured by γ-counting.
By determining the amounts of Aβ1-40 and ^65Zn in the filtrate, the quantities retarded by the filters could be determined, and the stoichiometry of the zinc: Aβ assemblies estimated. […] The amounts of zinc-precipitated Aβ1-40 resolubilized in the filtrate fraction were determined by OD214, and expressed as a percentage of the amount originally retained by the respective filters. ^65Zn released into the filtrate was measured by γ-counting.

[3] = Tinctorial amyloid formation (Congo Red, polarized light); type: physicochemical
Experimental: Zinc-induced tinctorial amyloid formation. […] Unbound dye was removed, the pellet washed with buffer 1 (100 mM NaCl, 20 mM Tris-HCl, pH 7.4) and mounted for microscopy.
Unbound dye was removed, the pellet washed with buffer 1 (100 mM NaCl, 20 mM Tris-HCl, pH 7.4) and mounted for microscopy.

[4] = centrifugation studies; cited from earlier work
[5] = ^65Zn^2+ dot-blot binding to immobilized Aβ peptides (Scatchard / competition); details: for zinc binding (in words): dot-blot or blot of tryptic digest, ^65Zn^2+
Experimental: ^65Zn^2+ Binding Studies—Dissolved peptides (1.2 nMol, unless otherwise stated) were dot-blotted onto 0.2-μm polyvinylidene difluoride membrane (Pierce Chemical Co.), washed twice with chelating buffer (200 μl×100 mM NaCl, 20 mM Tris-HCl, 1 mM EDTA, pH 7.4), then five times with blocking buffer (200 μl×100 mM NaCl, 20 mM Tris-HCl, 1 mM MnCl2, pH 7.4), and then incubated (60 min, 20° C.) with ^65Zn (unless otherwise stated 130,000 cpm, […] ^65ZnCl2 in 200 μl of blocking buffer±competing metal ion chloride). The dot-blot was then washed with blocking buffer (5×200 μl), the dot excised, placed in a test tube, and assayed by γ-counting (11% efficiency). The equilibration volume for stoichiometry estimates was regarded as 6×200 μl. The 214 nm UV absorbance of the unbound flow-through was assayed to determine the total amount of peptide remaining bound onto the membrane. […] To alter the pH, the ^65Zn incubation was carried out in the presence of 100 mM buffer: MOPS (pH 6.5-7.0), MES (pH 5.0-6.0), acetate (pH 3.5-4.5). The dot-blot apparatus was washed with detergent and EDTA (50 mM) then rinsed and siliconized between use.
Aliquots of Aβ were incubated (60 min) with ^65Zn^2+ in the presence of varying concentrations of unlabeled Zn^2+ (0.01-50 μM total). Values shown are means±S.D., n≧3. […] (FIG. 1b) depicts specificity of the Zn^2+ binding site for various metals. Aβ was incubated (60 min) with ^65Zn^2+ (157 nM, 138,000 cpm) and competing unlabeled metal ions (50 μM total). […] Percent binding of total counts ^65Zn^2+/min added is corrected for the amounts (in nanomoles) of peptides adhering to the membrane. (FIG. 1d) depicts as for 1a, with Aβ1-28 peptide substituting for Aβ1-40. 157 nM ^65Zn (138,000 cpm) is used in this experiment to probe immobilized peptide (1.6 nmol). (FIG. 1e) depicts pH dependence of […] binding to Aβ1-40.

[6] = neutral pH; cited from earlier work
Aβ1-40 = target: T2, Aβ1-40 (Homo sapiens, UniProt P05067); test: Tryptic digestion of Aβ1-40 after incubation with Zn^2+; type: biochemical
T2 construct: Aβ1-40 (13.9 μg) was incubated with; purchased Bachem; Sigma (also synthesized by the W. M. Keck Foundation laboratory, Yale); host or cells: chemical synthesis
Experimental: Tryptic Digestion of Aβ-Aβ1-40 (13.9 μg) was incubated with Zn^2+ (12 μl in blocking buffer, 1 h, 37° C.) and then digested with trypsin (12 ng, 3 h, 37° C.). The reaction was stopped by adding SDS sample buffer containing phenylmethylsulfonyl fluoride (1 mM), boiling the samples (5 min), and applying the samples to Tris/Tricine gel electrophoresis and transfer. The blot was washed with EDTA, Coomassie-stained, incubated with ^65Zn^2+, individual bands were excised, assayed for ^65Zn^2+ binding, and N-terminal sequenced to confirm the identity of the digestion products.
The blot in 4a was incubated with ^65Zn^2+, the visible bands excised, and the bound counts for each band determined.

[7] = human, in vivo
Aβ [8] = target: T1, Aβ; test: SDS Tris/Tricine gel electrophoresis of Aβ incubated with Zn^2+; details: Zn^2+ 200 μM, 1-24 h, 20° C.
Experimental: To further test whether zinc induces irreversible precipitation of Aβ in the absence of kaolin, Aβ incubated with Zn^2+ (200 μM, 1-24 h, 20° C.) was subjected to SDS Tris/Tricine gel electrophoresis.

trypsin = test: Trypsin activity, Z-Arg-amido-4-methylcoumarin cleavage; type: biochemical
[9] = Aβ binding to kaolin (aluminum silicate); type: physicochemical; details: metal 25 μM
Experimental: Aβ Binding to Kaolin (Aluminum Silicate)—Kaolin suspension was prepared in high performance liquid chromatography water (Fisher), defined, and adjusted to 50% (v/v). Aβ (40 μg) was incubated in siliconized reaction vessels with either kaolin or Sephadex G50 SF (10 μl×50% (v/v)) in Cu^2+, Zn^2+, or EDTA (100 μl in TBS, 5 min, room temperature). The suspension was then pelleted (1500×g, 3 min) and the supernatant removed and diluted 20-fold with water to bring the UV absorbance readings into the linear range. Samples were assayed at 214 nm before and after incubation with kaolin or Sephadex.
(FIG. 3a) depicts concentration (by 214 nm absorbance) of Aβ remaining in supernatant after incubation with 10 mg of G50 Sephadex. (FIG. 3b) depicts concentration (by 214 nm absorbance) of Aβ remaining in supernatant after incubation with 10 mg of kaolin, expressed as percent of the starting absorbance.

T1 sequence (P05067 672-711 limits assumed): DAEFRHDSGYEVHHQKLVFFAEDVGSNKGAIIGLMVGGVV
T2 sequence (P05067 672-711 limits assumed): as above

Molecule: [Cu+2] [Cu^2+]
- Aβ dimerization (Aβ [1]; 25 μM total): dramatic increase in Aβ dimerization

Molecule: [Ag+2] [Ag^2+]
- less total peptide eluted compared with EDTA profile (Aβ [1]): 40%

Molecule: rat Aβ1-40: rat/mouse species of Aβ1-40; Arg→Gly, Tyr→Phe and His→Arg at positions 5, 10 and 13 (DAEFGHDSGFEVRHQKLVFFAEDVGSNKGAIIGLMVGGVV; Amyloid-beta protein 40; UniProt P08592 672-711, looked up)
- increase of >0.1μ particles following incubation with Zn^2+ ([2]; Zn^2+ 25 μM versus EDTA): 20%
- increase of >0.22μ particles following incubation with Zn^2+ ([2]; Zn^2+ 25 μM versus EDTA): 30%
- proportion as >0.65μ particles ([2]; Zn^2+ 25 μM, peptide […]): increased only slightly
- peptide aggregated into >0.2μ particles (EDTA, higher peptide concentrations): ≈ 15%
- peptide aggregated into >0.2μ particles (EDTA, peptide 0.8 μM): no detectable aggregation
- peptide aggregated into >0.2μ particles (Zn^2+ 25 μM, peptide 0.8 μM): no aggregation
- peptide aggregated into >0.2μ particles (Zn^2+ 25 μM, peptide 4 μM): 25%
- Zn^2+ concentration that induces amyloid by tinctorial criteria [3]: ≥ 10 µM
- Congo Red-stained material after incubation with EDTA ([3]; EDTA 50 μM instead of Zn^2+): In neither case was Congo Red-stained material detected
- tinctorial amyloid formation (in words) ([3]; Zn^2+ 25 μM, 30 min, 37° C.): significantly fewer and smaller particles, with minimal birefringence

Molecule: ^125I-Aβ1-40: human Aβ1-40 tracer iodinated on the tyrosine residue at position 10
- Zn^2+ concentration required to precipitate the peptide [4]: 1 mM

Molecule: 25-35: Aβ fragment covering a region of the carboxyl terminus, residues 25-35 (GSNKGAIIGLM; Amyloid-beta protein 40; UniProt P05067 696-706, looked up, fragment)
- zinc binding (in words) [5]: unable to bind zinc

Molecule: [Al+3] [Al^3+]
- effect on Aβ recoverable by chromatography (in words) (Aβ [1]): partial effects on Aβ solubility comparable with 3 μM total Zn^2+

Molecule: insulin: peptide whose zinc binding properties are well characterized
- stoichiometric ratio Zn^2+:insulin at which the peptide precipitates [6]: > 0.33

Molecule: Aβ1-28: Aβ fragment, residues 1-28
- ^65Zn^2+ binding compared with Aβ1-40 ([5]; ^65Zn^2+ 74 nM, FIG. 1c): 30 % of Bmax

Molecule: [Ba+2] [Ba^2+]
- less total peptide eluted compared with EDTA profile (Aβ [1]): 40%

Molecule: [Ca+2] [Ca^2+]
- less total peptide eluted compared with EDTA profile (Aβ [1]): 40%

Molecule: [Zn+2] [Zn^2+]
- Aβ eluting from the column (Aβ [1]; 25 μM total Zn^2+): < 20%
- lowest total concentration that decreases recoverable Aβ (Aβ [1]; compared with EDTA profile): 0.4 µM
- inhibition of tryptic Aβ hydrolysis (Aβ1-40; 200 μM Zn^2+): complete inhibition of Aβ hydrolysis
- induction of aggregation of human Aβ1-40 by metal ions (metal ions 3 μM, Aβ1-40 […]): the only one of several metal ions tested on an equimolar basis, including Al^3+, to induce significant aggregation of human Aβ1-40
- effect on cognition of age-matched control subjects [7]: remained unaffected by the dose
- reversibility of changes [7]: rapidly reversible following cessation of the four day supplementation
- time to acute decline in cognition [7]: forty-eight
- drop in Mini-Mental State Examination scores ([7]; po): 31%
- covalent or SDS-resistant polymerization of Aβ (Aβ [8]): does not induce covalent or SDS-resistant polymerization of Aβ
- inhibition of tryptic activity (trypsin; 200 μM): 12%
- effect on the activity of trypsin (trypsin; up to 100 μM in TBS): negligible
- effect on kaolin-induced Aβ precipitation relative to EDTA [9]: nearly half of the amount recovered from the EDTA incubation supernatant
- competition of unlabeled metal ions for ^65Zn^2+ label on Aβ ([5]; competing metal 50 μM total, ^65Zn^2+ 157 nM): the only unlabeled metal ion tested that is capable of competing off the label

Molecule: [Mg+2] [Mg^2+]
- less total peptide eluted compared with EDTA profile (Aβ [1]): 40%

Molecule: NC(CO)(CO)CO [Tris]
- abolition of ^65Zn^2+ binding to Aβ ([5]; 150 mM Tris): ≈ 50%
- abolition of ^65Zn^2+ binding to Aβ ([5]; 500 mM Tris): ≈ 95%

Molecule: 17-40: 2.1 kDa tryptic digestion product of Aβ1-40, post-secretase carboxyl-terminal product (LVFFAEDVGSNKGAIIGLMVGGVV; Amyloid-beta protein 40; UniProt P05067 688-711, looked up, fragment) [reference compound]
- effect of zinc on the rate of tryptic digestion of the peptide (Aβ1-40; increasing zinc concentrations): not inhibited by increasing zinc concentrations
- zinc binding (in words) [5]: does not bind zinc

Molecule: [Pb+2] [Pb^2+]
- effect on Aβ recoverable by chromatography (in words) (Aβ [1]): most strongly promotes the elution of the monomeric peptide, abolishing high order polymers

Molecule: gln11: Aβ1-28 where residue 11 is glutamine (DAEFRHDSGYQVHHQKLVFFAEDVGSNK; Amyloid-beta protein 40; UniProt P05067 672-699, looked up, variant E11Q)
- zinc binding (in words) [5]: does not interfere with ^65Zn^2+ binding

Molecule: 6-40: 3.6 kDa tryptic digestion product of Aβ1-40
- zinc binding (in words) [5]: binds zinc
